Experimental data published in patent US8642609B2, “Modulators of ATP-binding cassette transporters” (Vertex Pharmaceuticals Incorporated, priority 2003, dated 2014).

Molecular target: T1, ΔF508-CFTR (Homo sapiens, UniProt P13569, DEL508-508)
T1 construct: expressed in transfected cells
Assay: Membrane potential optical assay (FRET/VIPR), identification of correction compounds
Type: cell-based
Settings: for Emax: relative efficacy
Procedure, shortened: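 Corrector screen: FRET voltage-sensor dyes (CC2-DMPE donor, DiSBAC2(3)) report Cl^− efflux-driven depolarization after 10 μM forskolin and 20 μM genistein in Cl^−-free medium. Beforehand, ΔF508-CFTR NIH3T3 fibroblasts received compound for 16 hrs at 37° C; temperature-corrected cells (27° C) served as positive control.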

T1 sequence (P13569 with tags, fused parts or gaps DEL508-508): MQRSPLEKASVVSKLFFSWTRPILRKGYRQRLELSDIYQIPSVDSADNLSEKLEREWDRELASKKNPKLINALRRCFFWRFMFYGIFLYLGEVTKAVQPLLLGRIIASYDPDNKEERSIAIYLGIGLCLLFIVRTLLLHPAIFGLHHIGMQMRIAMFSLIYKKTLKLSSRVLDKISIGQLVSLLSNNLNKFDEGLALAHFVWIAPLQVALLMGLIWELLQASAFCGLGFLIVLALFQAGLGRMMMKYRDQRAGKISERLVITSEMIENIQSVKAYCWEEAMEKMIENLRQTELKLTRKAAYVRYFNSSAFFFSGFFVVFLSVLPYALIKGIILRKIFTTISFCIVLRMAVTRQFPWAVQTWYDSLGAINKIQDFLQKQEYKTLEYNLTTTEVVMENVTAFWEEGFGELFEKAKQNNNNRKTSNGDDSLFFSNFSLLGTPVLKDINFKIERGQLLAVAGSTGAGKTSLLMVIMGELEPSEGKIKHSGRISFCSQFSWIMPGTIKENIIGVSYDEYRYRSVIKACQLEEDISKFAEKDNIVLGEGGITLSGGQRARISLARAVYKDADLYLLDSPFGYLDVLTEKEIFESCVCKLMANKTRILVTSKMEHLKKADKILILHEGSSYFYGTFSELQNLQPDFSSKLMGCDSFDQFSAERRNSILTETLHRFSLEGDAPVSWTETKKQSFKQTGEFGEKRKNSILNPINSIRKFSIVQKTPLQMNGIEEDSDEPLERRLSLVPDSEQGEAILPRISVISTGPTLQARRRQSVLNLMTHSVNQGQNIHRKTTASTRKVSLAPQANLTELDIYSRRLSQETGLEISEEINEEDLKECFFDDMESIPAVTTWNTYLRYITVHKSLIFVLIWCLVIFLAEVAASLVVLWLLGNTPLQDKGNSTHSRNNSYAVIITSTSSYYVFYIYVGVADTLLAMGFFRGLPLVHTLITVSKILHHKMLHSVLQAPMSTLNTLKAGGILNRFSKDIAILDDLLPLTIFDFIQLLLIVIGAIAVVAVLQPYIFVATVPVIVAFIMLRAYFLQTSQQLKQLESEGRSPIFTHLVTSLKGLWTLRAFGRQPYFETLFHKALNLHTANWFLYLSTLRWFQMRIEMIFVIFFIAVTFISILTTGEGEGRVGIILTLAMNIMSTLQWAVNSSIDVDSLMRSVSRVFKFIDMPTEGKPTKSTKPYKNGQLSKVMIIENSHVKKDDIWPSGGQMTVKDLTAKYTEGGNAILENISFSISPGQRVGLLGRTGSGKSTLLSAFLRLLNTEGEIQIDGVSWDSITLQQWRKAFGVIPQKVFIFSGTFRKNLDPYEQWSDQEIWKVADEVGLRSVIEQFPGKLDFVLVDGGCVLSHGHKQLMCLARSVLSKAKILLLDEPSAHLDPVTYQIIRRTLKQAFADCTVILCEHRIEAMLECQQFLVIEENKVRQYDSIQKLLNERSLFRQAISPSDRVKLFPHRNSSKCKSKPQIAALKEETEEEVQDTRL

| EC50 | Emax | Structure (SMILES) |
| --- | --- | --- |
| < 10 µM | 25 to 100% | COc1ccc(S(=O)(=O)N2CCN(C(C)c3nc4ccc(NC(C)=O)cc4c(=O)n3C)CC2)cc1 (stereo not shown) [compound 155] |
| 25 to 60 µM | < 25% | CC(NC1CCNCC1)c1nc2ccccc2c(=O)n1C (stereo not shown) [compound 179] |
| 25 to 60 µM | < 25% | CC(c1nc2ccccc2c(=O)n1C)N1CCN(S(=O)(=O)c2ccc(-c3cc(C(F)(F)F)nn3C)s2)CC1 (stereo not shown) [compound 258] |
| 10 to 25 µM | < 25% | Cc1ccc(S(=O)(=O)N2CCN(C(C)c3nc4ccc(Br)cc4c(=O)n3C)CC2)cc1 (stereo not shown) [compound 115] |
| 25 to 60 µM | 25 to 100% | COc1ccc(S(=O)(=O)N2CCN(C(C)c3ncc(C(=O)N(C)C)c(N4CCCCC4)n3)CC2)cc1 (stereo not shown) [compound 358] |
| 25 to 60 µM | < 25% | CC(c1nc2ccccc2c(=O)n1C)N(CCN(C)S(=O)(=O)c1ccc(Cl)cc1)S(=O)(=O)c1ccc(Cl)cc1 (stereo not shown) [compound 201] |
| 25 to 60 µM | < 25% | COc1ccc(S(=O)(=O)NCCCN(C(C)c2nc3ccccc3c(=O)n2C)S(=O)(=O)c2ccc(OC)cc2)cc1 (stereo not shown) [compound 205] |
| 10 to 25 µM | 25 to 100% | CC(c1nc2ccc(Br)cc2c(=O)n1C)N1CCN(S(=O)(=O)c2ccccc2)CC1 (stereo not shown) [compound 114] |
| < 10 µM | > 100% | COc1ccc(S(=O)(=O)N2CCN(C(C)c3nc(OC4CCC4)c4ccccc4n3)CC2)cc1 (stereo not shown) [compound 398] |
| 25 to 60 µM | 25 to 100% | COc1ccc(S(=O)(=O)N2CCN(C(C)c3nc4ccc(C(N)=O)cc4c(=O)n3C)CC2)cc1 (stereo not shown) [compound 143] |
| 10 to 25 µM | > 100% | COc1ccc(S(=O)(=O)N2CCN(C(C)c3nc(N4CC=CC4)c4ccccc4n3)CC2)cc1 (stereo not shown) [compound 391] |
| 25 to 60 µM | 25 to 100% | COc1ccc(S(=O)(=O)N2CCN(C(C)c3nc(N4CC[C@@H](NC(C)=O)C4)c4ccccc4n3)CC2)cc1 (stereo partly shown) [compound 394] |
| 25 to 60 µM | < 25% | CC(NCCN(C)S(=O)(=O)c1ccc(Cl)cc1)c1nc2ccccc2c(=O)n1C (stereo not shown) [compound 212] |
| 25 to 60 µM | 25 to 100% | COc1ccc(S(=O)(=O)N2CCN(C(C)c3nc(N4CCC(C(N)=O)CC4)c4ccccc4n3)CC2)cc1 (stereo not shown) [compound 364] |
| < 10 µM | > 100% | COc1ccc(S(=O)(=O)N2CCN(Cc3nc(OC4CCCC4)c4ccccc4n3)CC2)cc1 [compound 386] |
| < 10 µM | > 100% | CCCn1c([C@@H](C)N2CCN(S(=O)(=O)c3ccc(Br)cc3)CC2)nc2ccccc2c1=O [compound 148] |

| EC50 | Emax | Structure (SMILES) |
| --- | --- | --- |
| 25 to 60 µM | 25 to 100% | CCOC(=O)c1cnc(C(C)N2CCN(S(=O)(=O)c3ccc(OC)cc3)CC2)[nH]c1=O (stereo not shown) [compound 349] |
| < 10 µM | > 100% | CCCn1c(C(C)N2CCN(S(=O)(=O)c3ccc(OC)cc3)CC2)nc2ccccc2c1=O (stereo not shown) [compound 22] |
| < 10 µM | 25 to 100% | COc1ccc(S(=O)(=O)N2CCN(C(C)c3nc(N4CCCC(C)C4)c4ccccc4n3)CC2)cc1 (stereo not shown) [compound 305] |
| < 10 µM | 25 to 100% | COc1ccc(S(=O)(=O)N2CCN(C(C)(C)c3nc4ccc(Cl)cc4c(=O)n3C)CC2)cc1 [compound 149] |
| 25 to 60 µM | < 25% | Cc1c(S(=O)(=O)N2CCN(C(C)c3nc4ccccc4c(=O)n3C)CC2)sc2ccc(Cl)cc12 (stereo not shown) [compound 270] |
| < 10 µM | > 100% | CCC(c1nc2ccccc2c(=O)n1CC)N1CCN(S(=O)(=O)c2ccc(OC)cc2)CC1 (stereo not shown) [compound 338] |
| 10 to 25 µM | > 100% | COc1ccc(S(=O)(=O)N2CCN(C(C)c3nc(N4CCC(CCO)CC4)c4ccccc4n3)CC2)cc1 (stereo not shown) [compound 363] |
| < 10 µM | 25 to 100% | Cc1cccc(S(=O)(=O)N2CCN(C(C)c3nc4cc(Cl)ccc4c(=O)n3C)CC2)c1 (stereo not shown) [compound 96] |
| < 10 µM | > 100% | CCCC1CCN(c2nc(C(C)N3CCN(S(=O)(=O)c4ccc(OC)cc4)CC3)nc3ccccc23)CC1 (stereo not shown) [compound 365] |
| 10 to 25 µM | 25 to 100% | COc1ccc(S(=O)(=O)N2CCN(C(C)c3nc(N(C)CC4OCCO4)c4ccccc4n3)CC2)cc1 (stereo not shown) [compound 395] |
| 25 to 60 µM | < 25% | CC(c1nc2ccc(Cl)cc2c(=O)n1C)N1CCN(C(=O)c2ccccc2)CC1 (stereo not shown) [compound 38] |
| 10 to 25 µM | > 100% | COc1ccc(S(=O)(=O)N2CCN(C(C)c3nc(N4CCC(C)CC4)c4cc(F)ccc4n3)CC2)cc1 (stereo not shown) [compound 372] |
| 25 to 60 µM | 25 to 100% | CC(c1nc2ccccc2c(=O)n1C)N1CC2CC1CN2S(=O)(=O)c1ccc(Br)cc1 (stereo not shown) [compound 177] |
| 10 to 25 µM | > 100% | COc1ccc(S(=O)(=O)N2CCN(C(C)c3nc(OCC4(C)COCOC4)c4ccccc4n3)CC2)cc1 (stereo not shown) [compound 296] |
| 10 to 25 µM | 25 to 100% | CC(c1nc2cc(Cl)ccc2c(=O)n1C)N1CCN(S(=O)(=O)c2ccccc2)CC1 (stereo not shown) [compound 91] |
| 25 to 60 µM | 25 to 100% | COc1ccc(S(=O)(=O)Nc2ccc(NC(C)c3nc4ccccc4c(=O)n3C)cc2)cc1 (stereo not shown) [compound 307] |

Continued, compound first:

| Structure (SMILES) | EC50 | Emax |
| --- | --- | --- |
| CC(c1nc2ccccc2c(=O)n1C)N1CCN(S(=O)(=O)c2cc(S(=O)(=O)c3ccccc3)cs2)CC1 (stereo not shown) [compound 263] | 25 to 60 µM | < 25% |
| COCCn1c(C(C)N2CCN(S(=O)(=O)c3ccc(OC)cc3)CC2)nc2ccccc2c1=O (stereo not shown) [compound 4] | 10 to 25 µM | 25 to 100% |
| COc1ccc(S(=O)(=O)N2CCN(C(C)c3nc(N4CCC5(CC4)OCCCO5)c4ccccc4n3)CC2)cc1 (stereo not shown) [compound 328] | 10 to 25 µM | > 100% |
| CCn1c(C(C)N2CCN(S(=O)(=O)c3ccccc3)CC2)nc2ccc(Cl)cc2c1=O (stereo not shown) [compound 37] | 10 to 25 µM | 25 to 100% |
| COc1ccc(S(=O)(=O)N2CCN(C(C)c3nc(Nc4ccccc4)c4ccccc4n3)CC2)cc1 (stereo not shown) [compound 366] | < 10 µM | 25 to 100% |
| COc1ccc(S(=O)(=O)N2CCN(C(C)c3nc4ccc(S(C)(=O)=O)cc4c(=O)n3C)CC2)cc1 (stereo not shown) [compound 140] | 10 to 25 µM | 25 to 100% |
| CCCn1c(C(C)N2CCN(S(=O)(=O)c3ccc(F)cc3)CC2)nc2ccccc2c1=O (stereo not shown) [compound 28] | 10 to 25 µM | 25 to 100% |
| CC(c1nc2ccccc2c(=O)n1C)N(CCNS(=O)(=O)c1ccc(Cl)cc1)S(=O)(=O)c1ccc(Cl)cc1 (stereo not shown) [compound 198] | 25 to 60 µM | < 25% |
| CC(c1nc2cc(Cl)ccc2c(=O)n1C)N1CCN(S(C)(=O)=O)CC1 (stereo not shown) [compound 108] | 10 to 25 µM | < 25% |
| COc1ccc(S(=O)(=O)N2CCN(C(C)c3nc(N4CCN(c5ccccc5)CC4)c4ccccc4n3)CC2)cc1 (stereo not shown) [compound 390] | < 10 µM | > 100% |
| CC(c1nc2ccc(Cl)cc2c(=O)n1C)N1CCN(S(=O)(=O)c2ccccc2)CC1 (stereo not shown) [compound 71] | 10 to 25 µM | 25 to 100% |
| CC(c1nc2ccccc2c(=O)n1C)N(C)C1CCN(S(=O)(=O)c2ccc(Br)cc2)CC1 (stereo not shown) [compound 306] | 25 to 60 µM | 25 to 100% |
| CCCn1c(C(C)N2CCN(C(=O)Nc3ccc(OC)cc3OC)CC2)nc2ccccc2c1=O (stereo not shown) [compound 25] | 25 to 60 µM | < 25% |
| CC(c1nc2ccccc2c(=O)n1C)N1CCN(S(=O)(=O)c2cccc3cccnc23)CC1 (stereo not shown) [compound 276] | 25 to 60 µM | < 25% |
| CC(c1nc2ccccc2c(=O)n1C)N1CCN(C(=O)c2ccc(C(F)(F)F)cc2)CC1 (stereo not shown) [compound 54] | 25 to 60 µM | 25 to 100% |
| COc1ccc(S(=O)(=O)N2CCN(C(C)c3nc(OC4CCCCC4)c4ccccc4n3)CC2)cc1 (stereo not shown) [compound 298] | < 10 µM | > 100% |
| CC(c1nc2ccc(N)cc2c(=O)n1C)N1CCN(S(=O)(=O)c2ccc(Br)cc2)CC1 (stereo not shown) [compound 146] | < 10 µM | > 100% |
| CC(c1nc2ccccc2c(=O)n1C)N1CCCN(S(=O)(=O)c2ccc(Br)cc2)CC1 (stereo not shown) [compound 172] | < 10 µM | 25 to 100% |
| CC(c1nc2ccc(Cl)cc2c(=O)n1C)N1CCN(C(=O)Nc2ccc(Cl)cc2)CC1 (stereo not shown) [compound 18] | 10 to 25 µM | 25 to 100% |
| Cc1ccc(S(=O)(=O)N2CCN(C(C)c3nc4ccc(C#N)cc4c(=O)n3C)CC2)cc1 (stereo not shown) [compound 125] | 10 to 25 µM | 25 to 100% |
| CC(c1nc2ccccc2c(=O)n1C)N1CCN(C(=O)c2ccccc2)CC1 (stereo not shown) [compound 52] | 10 to 25 µM | < 25% |
| CC(c1nc2ccccc2c(=O)n1C)N1CCN(S(=O)(=O)c2ccc(-c3ccccn3)s2)CC1 (stereo not shown) [compound 281] | 25 to 60 µM | < 25% |
| CC(c1nc2ccc(Cl)cc2c(=O)n1C)N1CCN(S(=O)(=O)c2ccccc2Cl)CC1 (stereo not shown) [compound 63] | 10 to 25 µM | < 25% |
| CC(c1nc2ccc(Cl)cc2c(=O)n1C)N1CCN(S(=O)(=O)c2ccc(C(F)(F)F)cc2)CC1 (stereo not shown) [compound 73] | < 10 µM | 25 to 100% |
| CC(c1nc2ccccc2c(=O)n1C)N(C[C@@H]1CCCCN1S(=O)(=O)c1ccc(Br)cc1)S(=O)(=O)c1ccc(Br)cc1 (stereo partly shown) [compound 204] | 25 to 60 µM | < 25% |
| CCc1nc2ccccc2c(=O)n1C [compound 87] | 25 to 60 µM | < 25% |
| CCOC(=O)c1cnc(C(C)N2CCN(S(=O)(=O)c3ccc(OC)cc3)CC2)nc1N1CCCCC1 (stereo not shown) [compound 353] | < 10 µM | 25 to 100% |
| COc1ccc(S(=O)(=O)N2CCN(C(C)c3nc(OC4CCC(O)CC4)c4ccccc4n3)CC2)cc1 (stereo not shown) [compound 343] | 25 to 60 µM | 25 to 100% |
| Cc1c(S(=O)(=O)N2CCN(C(C)c3nc4ccccc4c(=O)n3C)CC2)sc2ccc(F)cc12 (stereo not shown) [compound 290] | 25 to 60 µM | 25 to 100% |
| Cc1cccc(S(=O)(=O)N2CCN(C(C)c3nc4ccc(Cl)cc4c(=O)n3C)CC2)c1 (stereo not shown) [compound 85] | 10 to 25 µM | 25 to 100% |
